What is called IC50 is the concentration needed to halve the response being measured. A higher IC50 goes with lower potency.

This is an account of results in patent US12492195B2, “Preparation method for and crystal form of 3-aryloxy-3-five-membered heteroaryl-propylamine compound” (Zhangzhou Pien Tze Huang Pharmaceutical Co., Ltd., priority 2020, dated 2025).

The target of assay [1] is T1, TRPA1 (Mus musculus, UniProt Q8BLA8).
T1 construct: expressed in transfected cells
The experiment in a line: IonWorks Barracuda (IWB) automated patch clamp detection of TRPA1 inhibitory activity. Type of assay: cell-based. The protocol: IonWorks Barracuda (IWB) automated patch clamp detection was used as test method: HEK293 cells stably expressing TRPA1 were placed in the T175 culture flask with DMEM medium containing 15 μg/mL Blasticidin S HCl, 200 μg/mL Hygromycin B and 10% FBS, and cultured in an incubator in 5% CO2 at 37° C. When the cell density reached about 80%, the culture medium was removed, the residue was rinsed once with phosphate buffered saline (PBS) without calcium and magnesium. 3 mL of Trypsin was added to digest for 2 min, 7 mL of culture medium was added to terminate the digestion. The cells were collected to 15 mL centrifuge tube and centrifuged at 800 rpm for 3 min. After the supernatant was removed, the cells were added to appropriate volume of extracellular fluid for re-suspending, and the cell density was controlled at 2-3×10^6/mL for IWB experiment. The formulation of extracellular fluid (in mM) was 140 NaCl, 5 KCl, 1 MgCl2, 10 HEPES, 0.5 EGTA, 10 Glucose (pH 7.4); the formulation of intracellular fluid (in mM) was 140 CsCl, 10 HEPES, 5 EGTA, 0.1 CaCl2), 1 MgCl2 (pH 7.2). 28 mg/mL of amphotericin B was freshly prepared with DMSO on the day of experiment, and then final concentration of 0.1 mg/mL of that was prepared with intracellular fluid.
Population patch clamp (PPC) plate was used in IWB experiment. The entire detection process was automatically carried out by the instrument. […]
The record of data and the export of current amplitude measurement were carried out by IWB software (version 2.5.3, Molecular Devices Corporation. Union City, CA). No statistics was recorded for wells with sealing impedance lower than 20 MΩ. […] TRPA1 current amplitude was measured at ±100 mV. […] The dose-effect curve of compounds and IC50 were fitted and calculated by GraphPad Prism 5.02 (GraphPad Software, San Diego, CA).

Assay [2] concerns the target T2, human TRPA1 channel (Homo sapiens, UniProt O75762).
T2 construct: expressed in transfected cells
The assay can be described thus: manual patch clamp detection of TRPA1 inhibitory activity. Type of assay: cell-based. As to the method: The stably transfected HEK293 cell line stably expressing human TRPA1 channel was placed in T75 culture flask with DMEM medium containing 15 μg/mL Blasticidin S HCl, 200 μg/mL Hygromycin B and 10% FBS, and cultured in an incubator in 5% CO2 at 37° C. When the cell density reached about 80%, the culture medium was removed, the residue was rinsed once with phosphate buffered saline (PBS) without calcium and magnesium. 2 mL of Trypsin was added to digest for 2 minutes, and 8 mL of culture medium was added to terminate the digestion. The cells were collected to 15 mL centrifuge tube and centrifuged at 800 rpm for 3 min. After the supernatant was removed, the cells were added to appropriate volume of extracellular fluid for re-suspending.
In manual patch clamp detection, HEKA system (Patch Master software) was used together with EPC-10 amplifier to record the whole cell current of TRPA1 stably transfected cell line at room temperature. […]
The record of data and the export of current amplitude measurement were carried out by Patch Master software. […] The original current data were corrected by software for leakage reduction, and the hTRPA1 current amplitude was measured at ±100 mV. The compound dose-effect curve and IC50 were fitted and calculated by GraphPad Prism 5.02 (GraphPad Sofhvare, San Diego, CA).
(In general: The patch-clamp technique gives a direct electrical read-out from membranes.)

The subject of assay [3] is C57 mice. The experiment in a line: hot plate pain model in mice. Type of assay: in vivo. The note with it: 10 mg/kg intraperitoneal, hot plate 55° C. The protocol:
SPF-grade C57 male mice were placed at hot plate with constant 55±0.1° C. […] If the pain reaction of mice was observed, the mice were taken out immediately to prevent mice from scalding. […] Appropriate amount of test compounds were added into required volume of physiological saline and fully suspended, and the concentration of the drug compound was prepared as 1 mg/ml. The standard volume of administration to mice was 10 ml/kg (or 0.1 ml/10 g). The administration mode was intraperitoneal administration. […] The administration volume was 10 ml/kg. […] Hot plate observation indicator is the time latency of mice on the hot plate at 55±0.1° C. Measurement and recording were conducted at 3 h before administration and 15 min, 30 min, and 60 min after administration. Maximum possible effect (MPE) % was used to evaluate analgesic effect of each compound, i.e., MPE %=[(Post drug latency-baseline latency)/(30-baseline latency)]×100. MPE % at different time points was recorded. The higher the value of MPE % was, the stronger the analgesic effect of the compound was.

T2 sequence (O75762 whole entry): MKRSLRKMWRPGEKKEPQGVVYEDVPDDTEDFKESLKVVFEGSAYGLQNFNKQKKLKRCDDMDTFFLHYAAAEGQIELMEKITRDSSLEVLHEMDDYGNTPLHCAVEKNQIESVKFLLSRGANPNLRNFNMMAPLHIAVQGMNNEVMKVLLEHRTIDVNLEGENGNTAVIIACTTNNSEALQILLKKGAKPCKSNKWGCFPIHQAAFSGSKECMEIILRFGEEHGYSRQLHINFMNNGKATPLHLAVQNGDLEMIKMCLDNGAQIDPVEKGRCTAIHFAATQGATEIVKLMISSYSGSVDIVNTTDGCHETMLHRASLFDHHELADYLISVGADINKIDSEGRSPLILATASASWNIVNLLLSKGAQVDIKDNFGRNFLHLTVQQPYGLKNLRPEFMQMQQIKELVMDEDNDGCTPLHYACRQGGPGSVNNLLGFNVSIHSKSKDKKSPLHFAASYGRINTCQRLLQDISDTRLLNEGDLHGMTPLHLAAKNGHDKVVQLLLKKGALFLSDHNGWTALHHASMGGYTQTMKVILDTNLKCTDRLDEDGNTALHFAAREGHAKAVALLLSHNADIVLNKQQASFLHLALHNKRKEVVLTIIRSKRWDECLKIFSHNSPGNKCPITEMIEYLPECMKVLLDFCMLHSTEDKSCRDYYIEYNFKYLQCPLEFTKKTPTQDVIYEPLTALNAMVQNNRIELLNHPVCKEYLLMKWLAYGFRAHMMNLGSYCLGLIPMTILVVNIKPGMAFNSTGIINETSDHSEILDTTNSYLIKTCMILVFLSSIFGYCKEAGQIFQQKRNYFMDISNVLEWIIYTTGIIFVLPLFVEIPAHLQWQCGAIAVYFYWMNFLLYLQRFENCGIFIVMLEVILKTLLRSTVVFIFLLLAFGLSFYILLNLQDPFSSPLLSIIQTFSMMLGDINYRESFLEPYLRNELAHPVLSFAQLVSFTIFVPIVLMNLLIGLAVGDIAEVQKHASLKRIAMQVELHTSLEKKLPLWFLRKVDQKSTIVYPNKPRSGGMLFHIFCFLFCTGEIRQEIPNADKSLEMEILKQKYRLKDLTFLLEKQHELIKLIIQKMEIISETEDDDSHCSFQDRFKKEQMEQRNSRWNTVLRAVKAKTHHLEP
T1 sequence (Q8BLA8 whole entry): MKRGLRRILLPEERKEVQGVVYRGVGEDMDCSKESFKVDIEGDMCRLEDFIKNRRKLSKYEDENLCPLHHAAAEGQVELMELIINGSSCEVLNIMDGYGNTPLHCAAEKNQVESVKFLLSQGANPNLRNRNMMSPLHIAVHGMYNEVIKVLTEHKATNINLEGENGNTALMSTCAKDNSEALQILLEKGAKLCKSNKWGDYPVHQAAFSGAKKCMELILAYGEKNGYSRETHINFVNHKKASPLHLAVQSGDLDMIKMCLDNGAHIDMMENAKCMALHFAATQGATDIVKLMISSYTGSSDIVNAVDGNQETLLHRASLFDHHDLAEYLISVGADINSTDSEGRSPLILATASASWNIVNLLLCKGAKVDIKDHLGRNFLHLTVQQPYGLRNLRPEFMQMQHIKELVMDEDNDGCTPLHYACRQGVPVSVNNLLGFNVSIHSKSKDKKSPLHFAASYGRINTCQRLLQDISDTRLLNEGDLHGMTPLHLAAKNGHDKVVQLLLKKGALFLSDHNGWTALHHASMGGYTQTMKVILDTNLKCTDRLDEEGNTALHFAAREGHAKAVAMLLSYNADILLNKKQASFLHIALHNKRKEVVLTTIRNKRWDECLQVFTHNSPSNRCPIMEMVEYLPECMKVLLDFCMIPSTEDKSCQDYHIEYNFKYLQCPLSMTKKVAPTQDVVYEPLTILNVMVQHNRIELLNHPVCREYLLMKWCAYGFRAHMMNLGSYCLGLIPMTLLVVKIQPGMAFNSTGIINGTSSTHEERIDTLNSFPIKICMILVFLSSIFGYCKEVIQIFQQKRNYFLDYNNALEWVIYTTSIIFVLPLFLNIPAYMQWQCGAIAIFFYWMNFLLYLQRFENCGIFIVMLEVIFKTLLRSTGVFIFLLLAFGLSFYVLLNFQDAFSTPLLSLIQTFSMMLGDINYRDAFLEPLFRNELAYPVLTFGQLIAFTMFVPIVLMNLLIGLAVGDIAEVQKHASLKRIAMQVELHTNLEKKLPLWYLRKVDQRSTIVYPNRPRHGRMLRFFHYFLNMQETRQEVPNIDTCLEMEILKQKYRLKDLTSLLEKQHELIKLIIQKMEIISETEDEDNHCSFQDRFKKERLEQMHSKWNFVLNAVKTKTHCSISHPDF

With `CNCC[C@H](Oc1cccc2ccccc12)c1cccs1` [Duloxetine (S configuration), Duloxetine, reference compound], in assay [1] (HEK293 cells stably expressing TRPA1, AITC-induced current), the IC50 is 10 to 20 µM.
`CNCC[C@H](Oc1cccc2ccoc12)c1cccs1` [IC-1, (S)-3-(Benzofuran-7-yloxy)-N-methyl-3-(thiophen-2-yl)propan-1-amine]: in assay [2], the “ratio of IC50 of the S configuration of duloxetine to the IC50 of the compound” value came to 10.14. The “analgesic activity compared with the positive controls gabapentin and duloxetine” value in assay [3] is “stronger than those of gabapentin and duloxetine”.
On to `CNCC[C@H](Oc1cccc2c1CCC2)c1cccs1` [IC-10], for which, in assay [1], the “activity ratio, IC50 of compound C1/IC50 of compound IC-10” value is reported as “about 2.5 times”. In assay [2], the “ratio of IC50 of the S configuration of duloxetine to the IC50 of the compound” value was 3.9. The “analgesic activity compared with the positive controls gabapentin and duloxetine” value in assay [3] is “stronger than those of gabapentin and duloxetine”.
